In ChEMBL document CHEMBL4819127, “Syntheses and antimicrobial activities of ogipeptin derivatives” (Bioorg Med Chem Lett, 2021):
Values after ≈ are worked out from the molar mass of the structure shown.

Key:
Acinetobacter baumannii [1] = assay: Antibacterial activity against Acinetobacter baumannii IHMA 1312713 assessed as bacterial growth inhibition; assay type: functional
Acinetobacter baumannii [2] = assay: Antibacterial activity against Acinetobacter baumannii ATCC 19606 assessed as bacterial growth inhibition; assay type: functional; conditions: ATCC 19606 = CIP 70.34 = JCM 6841
Klebsiella pneumoniae [3] = assay: Antibacterial activity against Klebsiella pneumoniae ATCC 10031 assessed as bacterial growth inhibition; assay type: functional
Pseudomonas aeruginosa [4] = assay: Antibacterial activity against Pseudomonas aeruginosa IHMA 1375891 assessed as bacterial growth inhibition; assay type: functional
Escherichia coli = assay: Antibacterial activity against Escherichia coli ATCC 47076 assessed as bacterial growth inhibition; assay type: functional
Pseudomonas aeruginosa [5] = assay: Antibacterial activity against Pseudomonas aeruginosa ATCC 27853 assessed as bacterial growth inhibition; assay type: functional
Pseudomonas aeruginosa [6] = assay: Antibacterial activity against Pseudomonas aeruginosa ATCC 15692 assessed as bacterial growth inhibition; assay type: functional
[7] = Cytotoxicity against HEK293 cells; assay type: cell-based; conditions: human, HEK293 cells
HepG2 = assay: Cytotoxicity against human HepG2 cells; assay type: functional
Klebsiella pneumoniae [8] = assay: Antibacterial activity against Klebsiella pneumoniae JCM 1662 assessed as bacterial growth inhibition; assay type: functional
Klebsiella pneumoniae [9] = assay: Antibacterial activity against Klebsiella pneumoniae IHMA 1387833 assessed as bacterial growth inhibition; assay type: functional
Klebsiella pneumoniae [10] = assay: Antibacterial activity against Klebsiella pneumoniae ATCC 700721 assessed as bacterial growth inhibition; assay type: functional

Compound | MIC (Acinetobacter baumannii [1]) [µg/mL] | MIC (Acinetobacter baumannii [2]) [µg/mL] | MIC (Klebsiella pneumoniae [3]) [µg/mL] | MIC (Pseudomonas aeruginosa [4]) [µg/mL] | MIC (Escherichia coli) [µg/mL] | MIC (Pseudomonas aeruginosa [5]) [µg/mL] | MIC (Pseudomonas aeruginosa [6]) [µg/mL] | CC50 [7] [µM] | CC50 (HepG2) [µM] | MIC (Klebsiella pneumoniae [8]) [µg/mL] | MIC (Klebsiella pneumoniae [9]) [µg/mL] | MIC (Klebsiella pneumoniae [10]) [µg/mL]
C/C=C1\NC(=O)C(NC(=O)c2cn(-c3ccccc3)nc2-c2ccc(Cl)cc2)C(O)CNC(=O)C(C(O)CN)NC(=O)C(C(O)CN)NC(=O)[C@H](CCCNC(=N)N)NC(=O)[C@H](CC(C)C)NC(=O)[C@H](CCN)NC1=O (stereo partly specified) | 64 (≈ 59.2 µM) | 8 (≈ 7.4 µM) | 4 (≈ 3.7 µM) | 128 (≈ 118 µM) | 4 (≈ 3.7 µM) | 8 (≈ 7.4 µM) | 128 (≈ 118 µM) | > 64 | > 64 | > 256 | > 256 | > 256
COLISTIN | 8 | 2 | 1 | 64 | 1 | 2 | 2 | – | > 64 | 4 | 32 | 1
C/C=C1\NC(=O)C(NC(=O)c2cn3c4c(c(N5CCN(C)CC5)c(F)cc4c2=O)OC[C@@H]3C)C(O)CNC(=O)C(C(O)CN)NC(=O)C(C(O)CN)NC(=O)[C@H](CCCNC(=N)N)NC(=O)[C@H](CC(C)C)NC(=O)[C@H](CCN)NC1=O (stereo partly specified) | > 128 | > 128 | 64 (≈ 55.9 µM) | > 128 | 128 (≈ 112 µM) | 32 (≈ 28 µM) | > 128 | > 64 | > 64 | > 128 | > 256 | > 256
C/C=C1\NC(=O)C(NC(=O)C2CCCN(C(=O)c3ccc(Cl)c(Cl)c3)C2)C(O)CNC(=O)C(C(O)CN)NC(=O)C(C(O)CN)NC(=O)[C@H](CCCNC(=N)N)NC(=O)[C@H](CC(C)C)NC(=O)[C@H](CCN)NC1=O (stereo partly specified) | > 256 | > 256 | > 256 | > 256 | 8 (≈ 7.37 µM) | 32 (≈ 29.5 µM) | > 256 | > 64 | > 64 | > 256 | > 256 | > 256
C/C=C1\NC(=O)C(NC(=O)[C@H]2CC[C@H](CNC(=O)OCc3ccccc3)CC2)C(O)CNC(=O)C(C(O)CN)NC(=O)C(C(O)CN)NC(=O)[C@H](CCCNC(=N)N)NC(=O)[C@H](CC(C)C)NC(=O)[C@H](CCN)NC1=O (stereo partly specified) | > 256 | 256 (≈ 238 µM) | 32 (≈ 29.8 µM) | > 256 | 8 (≈ 7.45 µM) | 8 (≈ 7.45 µM) | > 256 | > 64 | > 64 | > 256 | > 256 | > 256
C/C=C1\NC(=O)C(NC(=O)Cc2c(C)n(C(=O)c3ccc(Cl)cc3)c3ccc(OC)cc23)C(O)CNC(=O)C(C(O)CN)NC(=O)C(C(O)CN)NC(=O)[C@H](CCCNC(=N)N)NC(=O)[C@H](CC(C)C)NC(=O)[C@H](CCN)NC1=O (stereo partly specified) | > 256 | 32 (≈ 28.1 µM) | 4 (≈ 3.51 µM) | 64 (≈ 56.1 µM) | 2 (≈ 1.75 µM) | 8 (≈ 7.01 µM) | 32 (≈ 28.1 µM) | > 64 | > 64 | > 256 | > 256 | > 256
C/C=C1\NC(=O)C(NC(=O)c2ccc(-c3nnn(CC(=O)N(C)C)n3)cc2)C(O)CNC(=O)C(C(O)CN)NC(=O)C(C(O)CN)NC(=O)[C@H](CCCNC(=N)N)NC(=O)[C@H](CC(C)C)NC(=O)[C@H](CCN)NC1=O (stereo partly specified) | > 256 | > 256 | 256 (≈ 242 µM) | > 256 | 16 (≈ 15.1 µM) | 128 (≈ 121 µM) | > 256 | > 64 | > 64 | > 256 | > 256 | > 256
C/C=C1\NC(=O)C(NC(=O)CCc2nnc(-c3ccc(OC)cc3)[nH]2)C(O)CNC(=O)C(C(O)CN)NC(=O)C(C(O)CN)NC(=O)[C@H](CCCNC(=N)N)NC(=O)[C@H](CC(C)C)NC(=O)[C@H](CCN)NC1=O (stereo partly specified) | > 256 | > 256 | 8 (≈ 7.77 µM) | > 256 | 2 (≈ 1.94 µM) | 8 (≈ 7.77 µM) | > 256 | > 64 | > 64 | > 256 | > 256 | 16 (≈ 15.5 µM)
C/C=C1\NC(=O)C(NC(=O)CCCCCCCCC(=O)OCc2ccccc2)C(O)CNC(=O)C(C(O)CN)NC(=O)C(C(O)CN)NC(=O)[C@H](CCCNC(=N)N)NC(=O)[C@H](CC(C)C)NC(=O)[C@H](CCN)NC1=O (stereo partly specified) | 128 (≈ 119 µM) | 4 (≈ 3.72 µM) | 8 (≈ 7.44 µM) | 256 (≈ 238 µM) | 9 (≈ 8.37 µM) | 16 (≈ 14.9 µM) | 16 (≈ 14.9 µM) | > 64 | > 64 | 16 (≈ 14.9 µM) | > 256 | 8 (≈ 7.44 µM)
C/C=C1\NC(=O)C(NC(=O)c2ccc(-c3cc(-c4ccc(OCCCCC)cc4)on3)cc2)C(O)CNC(=O)C(C(O)CN)NC(=O)C(C(O)CN)NC(=O)[C@H](CCCNC(=N)N)NC(=O)[C@H](CC(C)C)NC(=O)[C@H](CCN)NC1=O (stereo partly specified) | 32 (≈ 28.2 µM) | 16 (≈ 14.1 µM) | 8 (≈ 7.05 µM) | 128 (≈ 113 µM) | 8 (≈ 7.05 µM) | 16 (≈ 14.1 µM) | 64 (≈ 56.4 µM) | – | 35 | 256 (≈ 226 µM) | 256 (≈ 226 µM) | 128 (≈ 113 µM)
C/C=C1\NC(=O)C(NC(=O)C2CC3(CCN(C(=O)OC(C)(C)C)CC3)c3ccccc32)C(O)CNC(=O)C(C(O)CN)NC(=O)C(C(O)CN)NC(=O)[C@H](CCCNC(=N)N)NC(=O)[C@H](CC(C)C)NC(=O)[C@H](CCN)NC1=O (stereo partly specified) | > 256 | 256 (≈ 230 µM) | 4 (≈ 3.59 µM) | > 256 | 4 (≈ 3.59 µM) | 16 (≈ 14.4 µM) | > 256 | > 64 | > 64 | > 256 | > 256 | > 256
C/C=C1\NC(=O)C(NC(=O)CCc2nc(-c3ccncc3)no2)C(O)CNC(=O)C(C(O)CN)NC(=O)C(C(O)CN)NC(=O)[C@H](CCCNC(=N)N)NC(=O)[C@H](CC(C)C)NC(=O)[C@H](CCN)NC1=O (stereo partly specified) | > 256 | 256 (≈ 255 µM) | 8 (≈ 7.98 µM) | > 256 | 2 (≈ 2 µM) | > 256 | > 256 | > 64 | > 64 | > 256 | > 256 | 32 (≈ 31.9 µM)
C/C=C1\NC(=O)C(NC(=O)c2cn3c4c(c(F)c(F)cc4c2=O)OC[C@@H]3C)C(O)CNC(=O)C(C(O)CN)NC(=O)C(C(O)CN)NC(=O)[C@H](CCCNC(=N)N)NC(=O)[C@H](CC(C)C)NC(=O)[C@H](CCN)NC1=O (stereo partly specified) | > 64 | > 64 | > 64 | > 64 | 32 (≈ 30.1 µM) | 16 (≈ 15 µM) | > 64 | > 64 | > 64 | > 64 | > 64 | 64 (≈ 60.1 µM)
C/C=C1\NC(=O)C(NC(=O)Cc2ccc(NC(=O)Nc3c(C)cccc3C)c(Cl)c2)C(O)CNC(=O)C(C(O)CN)NC(=O)C(C(O)CN)NC(=O)[C@H](CCCNC(=N)N)NC(=O)[C@H](CC(C)C)NC(=O)[C@H](CCN)NC1=O (stereo partly specified) | > 256 | > 256 | 128 (≈ 115 µM) | > 256 | 4 (≈ 3.59 µM) | 128 (≈ 115 µM) | > 256 | > 64 | > 64 | > 256 | > 256 | > 256
